This note sets out measurements from US8058068B2, “Peptide-enhanced transfections” (Life Technologies Corporation, priority 1995, dated 2011).

Ends that are not written are not given here. Sp‑5‑CO = N-terminal spermine conjugate

The test system of one assay is NIH/3T3 cells. It counts as cell-based. The conditions noted are these: peak activity. How it is done:
Two versions of the Tat peptide were synthesized: one with the DNA-binding group carboxyspermine on the N-terminus and one without. The core TAT sequence employed was […] [SEQ ID NO:123]. The ability of the TAT peptide and the carboxyspermine-modified TAT peptide to enhance cationic lipid-mediated transfection was tested.
Transfection was performed in NIH/3T3 cells, in 24-well plates. Seeding density was 6×10^4 cells/well. For each condition, the standard PLUS protocol was used (see example 3) for complexing. All complexes were prepared in OptiMEM reduced serum media. Cells were harvested and assayed for β-galactosidase acivity in the soluble extracts by luminescent assay (see example 8). […] A clear enhancement is seen.

For a further assay, the system named is K562 cells. Type of assay: cell-based, human.
The next assay relates to Jurkat cells. It counts as cell-based, human.
A further assay has as its system COS-7 cells. Briefly: Dendrimer-mediated and Lipofectamine transfection +/- peptides, luciferase assay. Type of assay: cell-based. The conditions noted are these: K16NLS (peak 2) 1, Sp-NLSNLS 1.5, NLS 20 μg/well.
In assay [1] the test system is CHO-K1 cells. Briefly: Receptor-ligand proteins with Sp-NLSNLS in DNA pre-complexes, lipid transfection, β-galactosidase assay. The conditions noted are these: DNA precomplexed with Sp-NLSNLS and the ligand protein(s).
Method: (§1) In separate experiments, CHO-K1 cells were seeded at 6×10^4 cells/well, and human fibroblasts were seeded at 8×10^4 cells/well in 24-well plates in DMEM supplemented with 10% fetal bovine serum and allowed to grow overnight.
The subject of assay [2] is Human fibroblasts. Described as above.
Method: as §1
In assay [3] the test system is Human fibroblasts. It counts as cell-based.
A further assay deals with NIH3T3 cells. Briefly: Transfection by polycationic lipid reagents other than DOSPA-DOPE +/- Sp-NLSNLS, b-galactosidase assay. Type of assay: cell-based. The conditions noted are these: 24 h.
In assay [4] the test system is Human fibroblasts. Described as above. Type of assay: cell-based. To be noted: 24 h.
In assay [5] the test system is CHO-K1 cells. The description is as above. Type of assay: cell-based. The conditions noted are these: 24 h.
[6] abbreviates: Transfection Agent Arg DMER 3 μg/well, chloroquine.
[7] abbreviates: Transfection Agent G7 (EDA) 3 μg/well, chloroquine.
Where [8] appears, read: Transfection Agent G9 (EDA) 3 μg/well, chloroquine.
The mark [9] stands for this setting: Transfection Agent Lipofectamine 1 μL/well.
Where [10] appears, read: Transfection Agent Lys DMER 3 μg/well, chloroquine.
The mark [11] stands for this setting: Transfection Agent “COMB BURST” 3 μg/well, chloroquine.
Where [12] appears, read: “LIPOFECTIN”, DNA precomplexed with Sp-NLSNLS and the ligand protein(s).
Setting [13] is: polycationic lipid with DNA alone.

With CGYGRKKRRQRRRG [TAT], in the assay on NIH/3T3 cells, the “ng b-Gal per cm2” value was 0.1 ng b-Gal per cm2 and the “ng b-Gal per ug Protein” value was 0.00 ng b-Gal per ug Protein.

For the substance “GLFEAIAEFIEGGWEGLIEG [E5, hemagglutinin peptide, modification of FluHa]”, the “Enhancement-Fold (DMRIE-C transfections at peak activity)” value (from here on “Enhancement-Fold”) stood at 3 Fold in the assay on K562 cells and 1.2 Fold in the assay with Jurkat cells.

For the substance “GYGPKKKRKVGG [NLS, nuclear localization signal of SV40 large T antigen]”, the “RLU (luciferase)” value amounted to 84209 RLU in the assay with COS-7 cells (setting [6]); 2749 RLU in the assay with COS-7 cells (setting [7]); 1747 RLU in the assay on COS-7 cells (setting [8]); 224029 RLU with COS-7 cells (setting [9]); 17689 RLU with COS-7 cells (setting [10]); 29639 RLU with COS-7 cells (setting [11]).

On to Insulin: receptor-ligand protein, for which the “Peak activity (ng β-gal/cm^2)” value in the assay with CHO-K1 cells [1] ([…]) was found to be 452 ng β-gal/cm^2; with CHO-K1 cells [1] (“LIPOFECTIN”), 31 ng β-gal/cm^2; in the assay with Human fibroblasts [2] (DMRIE-DOPE, DNA precomplexed with Sp-NLSNLS and the ligand protein), 20.7 ng β-gal/cm^2; in the assay with Human fibroblasts [2] (setting [12]), 22.7 ng β-gal/cm^2.

As for “K16CGYGPKKKRKVGGGGRGDSP (KKKKKKKKKKKKKKKKGGCGYGPKKKRKVGGKFTIVF) [K16NLSRGD]”, the “Enhancement-Fold” value with K562 cells and in the assay with Jurkat cells was 1 Fold each time.

In the case of K16GGCGYGPKKKRKVGG [K16NLS (peak 2)], the “RLU (luciferase)” value in the assay on COS-7 cells (setting [6]) was 63307 RLU; in the assay with COS-7 cells (setting [7]), 3423 RLU; in the assay on COS-7 cells (setting [8]), 2297 RLU; in the assay on COS-7 cells (setting [9]), 164105 RLU; with COS-7 cells (setting [10]) it was 20847 RLU; in the assay on COS-7 cells (setting [11]), 28562 RLU. In addition, the “Enhancement-Fold” value in the assay with K562 cells and in the assay on Jurkat cells was 1 Fold throughout.

With “Sp-5-CO-GGYGPKKKRKVGGGGYGPKKKRKVGG ({Sp‑5‑CO}-GGYGPKKKRKVGGGGYGPKKKRKVGG) [Sp-NLSNLS, the peptide NLSNLS conjugated to spermine]”, the “Enhancement levels (β-galactosidase activity)” value in the assay with Human fibroblasts [3] is 5-8 fold. Moreover, the “RLU (luciferase)” value in the assay on COS-7 cells (setting [6]) is recorded as 56548 RLU; with COS-7 cells (setting [7]), 2832 RLU; in the assay on COS-7 cells (setting [8]) it was 1702 RLU; with COS-7 cells (setting [9]) it was 200447 RLU; with COS-7 cells (setting [10]), 17203 RLU; in the assay on COS-7 cells (setting [11]), 23503 RLU.

With Transferrin: receptor-ligand protein, the “Peak activity (ng β-gal/cm^2)” value in the assay on CHO-K1 cells [1] ([…]) is 433 ng β-gal/cm^2; in the assay on CHO-K1 cells [1] (“LIPOFECTIN”), 44 ng β-gal/cm^2; in the assay on Human fibroblasts [2] ([…], DNA precomplexed with Sp-NLSNLS and the ligand protein(s)) it was 24.5 ng β-gal/cm^2; in the assay with Human fibroblasts [2] (setting [12]), 30.6 ng β-gal/cm^2.

Consider “sp-TAT: Tat peptide CGYGRKKRRQRRRG with the DNA-binding group carboxyspermine on the N-terminus (carboxyspermine-CGYGRKKRRQRRRG)”, for which, in the assay with NIH/3T3 cells, the “ng b-Gal per cm2” value was 0.06 ng b-Gal per cm2 and the “ng b-Gal per ug Protein” value turned out to be 0.00 ng b-Gal per ug Protein.

As to tetramethyldioleyl spermine [TMDOS], the “Peak activity, Lipid + SpNLSNLS” value in the assay on NIH3T3 cells (DNA precomplexed to Sp-NLSNLS) was 1.3 ng b-gal/cm^2; with Human fibroblasts [4] (DNA precomplexed to Sp-NLSNLS) it was 0.1 ng b-gal/cm^2; in the assay on CHO-K1 cells [5] (DNA precomplexed to Sp-NLSNLS) it was 2.9 ng b-gal/cm^2. The “Peak activity, Lipid alone” value in the assay on NIH3T3 cells (setting [13]) was found to be 0.2 ng b-gal/cm^2; in the assay with Human fibroblasts [4] (setting [13]), 0.01 ng b-gal/cm^2; in the assay on CHO-K1 cells [5] (setting [13]) it was 1.4 ng b-gal/cm^2.
